From ChEMBL document CHEMBL1909046, “DrugMatrix in vitro pharmacology data”

Target: T1, Alpha-1A adrenergic receptor (Rattus norvegicus, UniProt P43140)
T1 sequence (P43140 whole entry): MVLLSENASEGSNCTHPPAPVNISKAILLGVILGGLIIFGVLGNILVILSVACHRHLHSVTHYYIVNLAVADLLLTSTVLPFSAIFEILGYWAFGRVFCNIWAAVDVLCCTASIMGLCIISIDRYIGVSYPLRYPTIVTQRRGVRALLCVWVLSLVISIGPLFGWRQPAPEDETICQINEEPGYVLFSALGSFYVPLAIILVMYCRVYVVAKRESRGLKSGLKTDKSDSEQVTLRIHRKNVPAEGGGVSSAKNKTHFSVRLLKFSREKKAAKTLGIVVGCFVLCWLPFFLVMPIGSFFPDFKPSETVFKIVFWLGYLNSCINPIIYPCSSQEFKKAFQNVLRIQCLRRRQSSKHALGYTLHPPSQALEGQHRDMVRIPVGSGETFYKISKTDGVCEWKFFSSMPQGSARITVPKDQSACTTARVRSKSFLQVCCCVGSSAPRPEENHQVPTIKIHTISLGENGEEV
Assay: DRUGMATRIX: Alpha-1A adrenergic receptor radioligand binding (ligand: prazosin)
Assay type: cell membranes, Wistar, Submaxillary gland, Membrane
Details: Not Active = under 50% inhibition at 10 µM

| SMILES | IC50 |
| --- | --- |
| CC(C)NNC(=O)c1ccncc1 [IPRONIAZID] | Not Active |
| Cc1c(OCC(F)(F)F)ccnc1C[S+]([O-])c1nc2ccccc2[nH]1 (stereo not given) [LANSOPRAZOLE] | Not Active |
| O=c1cc(N2CCOCC2)oc2c(-c3ccccc3)cccc12 [LY-294002] | Not Active |
| COc1ccc2[nH]cc(CCNC(C)=O)c2c1 [MELATONIN] | Not Active |
| NC(=O)C[S+]([O-])C(c1ccccc1)c1ccccc1 (stereo not given) [MODAFINIL] | Not Active |
| CCN(CC)CCOCCC1=CCC2CC1C2(C)C (stereo not given) [MYRTECAINE] | Not Active |
| O=C(O)c1cccnc1Nc1cccc(C(F)(F)F)c1 [NIFLUMIC ACID] | Not Active |
| O=C(N/N=C/c1ccc([N+](=O)[O-])o1)c1cc([N+](=O)[O-])cc([N+](=O)[O-])c1O [NIFURSOL] | Not Active |
| COC(=O)Nc1nc2ccc(C(=O)c3cccs3)cc2[nH]1 [NOCODAZOLE] | Not Active |
| C#CC1(O)CC[C@H]2[C@@H]3CCC4=CC(=O)CC[C@@H]4[C@H]3CC[C@@]21CC (stereo not given in full) [NORGESTREL] | Not Active |
| COC(=O)Nc1nc2ccc([S+]([O-])c3ccccc3)cc2[nH]1 (stereo not given) [OXFENDAZOLE] | Not Active |

Same assay, conditions: Not Active = under 50% inhibition at 10 µM; read-out: IC50

| SMILES | IC50 [nM] |
| --- | --- |
| N=C(N)NC(=O)Cc1c(Cl)cccc1Cl [GUANFACINE] | 1350 |

Same assay, conditions: Not Active = under 50% inhibition at 10 µM; read-out: Ki

| SMILES | Ki [nM] |
| --- | --- |
| N=C(N)NC(=O)Cc1c(Cl)cccc1Cl [GUANFACINE] | 546 |

Target: T2, Alpha-1B adrenergic receptor (Rattus norvegicus, UniProt P15823)
T2 sequence (P15823 whole entry): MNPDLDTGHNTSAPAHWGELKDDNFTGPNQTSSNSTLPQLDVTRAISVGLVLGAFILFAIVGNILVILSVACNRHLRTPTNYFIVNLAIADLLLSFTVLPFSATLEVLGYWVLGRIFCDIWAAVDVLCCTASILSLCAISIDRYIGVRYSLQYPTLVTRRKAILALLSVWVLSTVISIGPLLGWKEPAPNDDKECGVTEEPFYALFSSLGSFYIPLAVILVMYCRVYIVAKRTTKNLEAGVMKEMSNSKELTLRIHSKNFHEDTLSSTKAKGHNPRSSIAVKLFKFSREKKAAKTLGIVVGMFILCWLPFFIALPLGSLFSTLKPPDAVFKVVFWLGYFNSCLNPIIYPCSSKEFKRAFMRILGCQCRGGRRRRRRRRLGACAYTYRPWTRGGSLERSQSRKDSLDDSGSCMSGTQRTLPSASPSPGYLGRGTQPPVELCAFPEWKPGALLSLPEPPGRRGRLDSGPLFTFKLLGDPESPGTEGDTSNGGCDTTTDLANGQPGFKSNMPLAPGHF
Assay: DRUGMATRIX: Alpha-1B adrenergic receptor radioligand binding (ligand: prazosin)
Assay type: cell membranes, Wistar, Liver, Membrane
Details: Not Active = under 50% inhibition at 10 µM

| SMILES | IC50 |
| --- | --- |
| N=C(N)NC(=O)Cc1c(Cl)cccc1Cl [GUANFACINE] | Not Active |
| CC(C)NNC(=O)c1ccncc1 [IPRONIAZID] | Not Active |
| Cc1c(OCC(F)(F)F)ccnc1C[S+]([O-])c1nc2ccccc2[nH]1 (stereo not given) [LANSOPRAZOLE] | Not Active |
| O=c1cc(N2CCOCC2)oc2c(-c3ccccc3)cccc12 [LY-294002] | Not Active |
| COc1ccc2[nH]cc(CCNC(C)=O)c2c1 [MELATONIN] | Not Active |
| NC(=O)C[S+]([O-])C(c1ccccc1)c1ccccc1 (stereo not given) [MODAFINIL] | Not Active |
| CCN(CC)CCOCCC1=CCC2CC1C2(C)C (stereo not given) [MYRTECAINE] | Not Active |
| O=C(O)c1cccnc1Nc1cccc(C(F)(F)F)c1 [NIFLUMIC ACID] | Not Active |
| O=C(N/N=C/c1ccc([N+](=O)[O-])o1)c1cc([N+](=O)[O-])cc([N+](=O)[O-])c1O [NIFURSOL] | Not Active |
| COC(=O)Nc1nc2ccc(C(=O)c3cccs3)cc2[nH]1 [NOCODAZOLE] | Not Active |
| C#CC1(O)CC[C@H]2[C@@H]3CCC4=CC(=O)CC[C@@H]4[C@H]3CC[C@@]21CC (stereo not given in full) [NORGESTREL] | Not Active |
| COC(=O)Nc1nc2ccc([S+]([O-])c3ccccc3)cc2[nH]1 (stereo not given) [OXFENDAZOLE] | Not Active |

Tested on: not listed separately
Assay: DRUGMATRIX: Calcium Channel Type L, Benzothiazepine radioligand binding (ligand: [3H] Diltiazem)
Assay type: cell membranes, Rattus norvegicus, Wistar, Brain, Membrane
Details: Not Active = under 50% inhibition at 10 µM

| SMILES | IC50 | Ki |
| --- | --- | --- |
| N=C(N)NC(=O)Cc1c(Cl)cccc1Cl [GUANFACINE] | Not Active | Not Active |
| CC(C)NNC(=O)c1ccncc1 [IPRONIAZID] | Not Active | Not Active |
| Cc1c(OCC(F)(F)F)ccnc1C[S+]([O-])c1nc2ccccc2[nH]1 (stereo not given) [LANSOPRAZOLE] | Not Active | Not Active |
| O=c1cc(N2CCOCC2)oc2c(-c3ccccc3)cccc12 [LY-294002] | Not Active | Not Active |
| COc1ccc2[nH]cc(CCNC(C)=O)c2c1 [MELATONIN] | Not Active | Not Active |
| NC(=O)C[S+]([O-])C(c1ccccc1)c1ccccc1 (stereo not given) [MODAFINIL] | Not Active | Not Active |
| CCN(CC)CCOCCC1=CCC2CC1C2(C)C (stereo not given) [MYRTECAINE] | Not Active | Not Active |
| O=C(O)c1cccnc1Nc1cccc(C(F)(F)F)c1 [NIFLUMIC ACID] | Not Active | Not Active |
| O=C(N/N=C/c1ccc([N+](=O)[O-])o1)c1cc([N+](=O)[O-])cc([N+](=O)[O-])c1O [NIFURSOL] | Not Active | Not Active |
| COC(=O)Nc1nc2ccc(C(=O)c3cccs3)cc2[nH]1 [NOCODAZOLE] | Not Active | Not Active |
| C#CC1(O)CC[C@H]2[C@@H]3CCC4=CC(=O)CC[C@@H]4[C@H]3CC[C@@]21CC (stereo not given in full) [NORGESTREL] | Not Active | Not Active |
| COC(=O)Nc1nc2ccc([S+]([O-])c3ccccc3)cc2[nH]1 (stereo not given) [OXFENDAZOLE] | Not Active | Not Active |

Tested on: not listed separately
Assay: DRUGMATRIX: Calcium Channel Type L, Phenylalkylamine radioligand binding (ligand: [3H] (-)-Desmethoxyverapamil (D-888))
Assay type: cell membranes, Rattus norvegicus, Wistar, Brain, Membrane
Details: Not Active = under 50% inhibition at 10 µM

| SMILES | IC50 | Ki |
| --- | --- | --- |
| N=C(N)NC(=O)Cc1c(Cl)cccc1Cl [GUANFACINE] | Not Active | Not Active |
| CC(C)NNC(=O)c1ccncc1 [IPRONIAZID] | Not Active | Not Active |
| Cc1c(OCC(F)(F)F)ccnc1C[S+]([O-])c1nc2ccccc2[nH]1 (stereo not given) [LANSOPRAZOLE] | Not Active | Not Active |
| O=c1cc(N2CCOCC2)oc2c(-c3ccccc3)cccc12 [LY-294002] | Not Active | Not Active |
| COc1ccc2[nH]cc(CCNC(C)=O)c2c1 [MELATONIN] | Not Active | Not Active |
| NC(=O)C[S+]([O-])C(c1ccccc1)c1ccccc1 (stereo not given) [MODAFINIL] | Not Active | Not Active |
| CCN(CC)CCOCCC1=CCC2CC1C2(C)C (stereo not given) [MYRTECAINE] | Not Active | Not Active |
| O=C(O)c1cccnc1Nc1cccc(C(F)(F)F)c1 [NIFLUMIC ACID] | Not Active | Not Active |
| O=C(N/N=C/c1ccc([N+](=O)[O-])o1)c1cc([N+](=O)[O-])cc([N+](=O)[O-])c1O [NIFURSOL] | Not Active | Not Active |
| COC(=O)Nc1nc2ccc(C(=O)c3cccs3)cc2[nH]1 [NOCODAZOLE] | Not Active | Not Active |
| C#CC1(O)CC[C@H]2[C@@H]3CCC4=CC(=O)CC[C@@H]4[C@H]3CC[C@@]21CC (stereo not given in full) [NORGESTREL] | Not Active | Not Active |
| COC(=O)Nc1nc2ccc([S+]([O-])c3ccccc3)cc2[nH]1 (stereo not given) [OXFENDAZOLE] | Not Active | Not Active |

Target: Melanocortin receptor 4 (Homo sapiens, UniProt P32245); further: in other assays of this panel Not Active means under 50% inhibition at 10 µM
Assay type: cell membranes, HEK293, Membrane
Details: hek293

Sequence of Melanocortin receptor 4 (P32245 whole entry): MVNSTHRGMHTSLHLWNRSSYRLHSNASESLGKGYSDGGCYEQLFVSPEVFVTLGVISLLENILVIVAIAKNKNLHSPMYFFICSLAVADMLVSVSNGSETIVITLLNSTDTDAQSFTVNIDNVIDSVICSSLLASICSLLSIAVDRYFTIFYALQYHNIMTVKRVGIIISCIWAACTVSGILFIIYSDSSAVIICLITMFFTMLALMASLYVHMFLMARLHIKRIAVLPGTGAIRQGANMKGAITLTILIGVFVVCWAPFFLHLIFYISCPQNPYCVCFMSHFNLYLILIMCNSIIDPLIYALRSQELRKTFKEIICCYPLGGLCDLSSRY

| SMILES | IC50 |
| --- | --- |
| N=C(N)NC(=O)Cc1c(Cl)cccc1Cl [GUANFACINE] | Not Active |
| CC(C)NNC(=O)c1ccncc1 [IPRONIAZID] | Not Active |
| Cc1c(OCC(F)(F)F)ccnc1C[S+]([O-])c1nc2ccccc2[nH]1 (stereo not given) [LANSOPRAZOLE] | Not Active |
| O=c1cc(N2CCOCC2)oc2c(-c3ccccc3)cccc12 [LY-294002] | Not Active |
| COc1ccc2[nH]cc(CCNC(C)=O)c2c1 [MELATONIN] | Not Active |
| NC(=O)C[S+]([O-])C(c1ccccc1)c1ccccc1 (stereo not given) [MODAFINIL] | Not Active |
| CCN(CC)CCOCCC1=CCC2CC1C2(C)C (stereo not given) [MYRTECAINE] | Not Active |
| O=C(O)c1cccnc1Nc1cccc(C(F)(F)F)c1 [NIFLUMIC ACID] | Not Active |
| O=C(N/N=C/c1ccc([N+](=O)[O-])o1)c1cc([N+](=O)[O-])cc([N+](=O)[O-])c1O [NIFURSOL] | Not Active |
| COC(=O)Nc1nc2ccc(C(=O)c3cccs3)cc2[nH]1 [NOCODAZOLE] | Not Active |
| C#CC1(O)CC[C@H]2[C@@H]3CCC4=CC(=O)CC[C@@H]4[C@H]3CC[C@@]21CC (stereo not given in full) [NORGESTREL] | Not Active |
| COC(=O)Nc1nc2ccc([S+]([O-])c3ccccc3)cc2[nH]1 (stereo not given) [OXFENDAZOLE] | Not Active |
